Results: PubChem BioAssay (NCI)
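Following 48 hours of exposure in 96-well plates, responses at five concentrations were used to interpolate endpoints linearly. The concentration for 50% growth inhibition is given as GI50. TGI: concentration producing complete growth inhibition.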

Columns and labels:
Test in all cases: inhibition of tumour cell growth, NCI panel, 48 h
[1] = test system: 786-0 renal
[2] = test system: A498 renal
[3] = test system: A549 NSCLC
[4] = test system: ACHN renal
[5] = test system: BT-549 breast
[6] = test system: CCRF-CEM leukemia
[7] = test system: COLO 205 colon
[8] = test system: DU-145 prostate
[9] = test system: EKVX NSCLC
[10] = test system: HCC-2998 colon
[11] = test system: HCT-116 colon
[12] = test system: HCT-15 colon
[13] = test system: HL-60(TB) leukemia
[14] = test system: HOP-62 NSCLC
[15] = test system: HOP-92 NSCLC
[16] = test system: HS 578T breast
[17] = test system: HT29 colon
[18] = test system: IGROV1 ovarian
[19] = test system: K-562 leukemia
[20] = test system: KM12 colon
[21] = test system: LOX IMVI melanoma
[22] = test system: M14 melanoma
[23] = test system: MALME-3M melanoma
[24] = test system: MCF7 breast
[25] = test system: MDA-MB-231 breast
[26] = test system: MDA-MB-435
[27] = test system: MOLT-4 leukemia
[28] = test system: NCI-H226 lung
[29] = test system: NCI-H23 lung
[30] = test system: NCI-H460 lung
[31] = test system: NCI-H522 lung
[32] = test system: NCI/ADR-RES ovarian
[33] = test system: OVCAR-3 ovarian
[34] = test system: OVCAR-4 ovarian
[35] = test system: OVCAR-5 ovarian
[36] = test system: OVCAR-8 ovarian
[37] = test system: PC-3 prostate
[38] = test system: RPMI-8226 leukemia
[39] = test system: RXF 393 renal
[40] = test system: SF-268 CNS
[41] = test system: SF-295 CNS
[42] = test system: SF-539 CNS
[43] = test system: SK-MEL-2 melanoma
[44] = test system: SK-MEL-28 melanoma
[45] = test system: SK-MEL-5 melanoma
[46] = test system: SK-OV-3 ovarian
[47] = test system: SN12C renal
[48] = test system: SNB-19 CNS
[49] = test system: SNB-75 CNS
[50] = test system: SR leukemia
[51] = test system: SW-620 colon
[52] = test system: T-47D breast
[53] = test system: U251 CNS
[54] = test system: UACC-257 melanoma
[55] = test system: UACC-62 melanoma
[56] = test system: UO-31 renal
[57] = test system: CAKI-1 renal
[58] = test system: TK-10 renal

Structure (SMILES): CC(=O)Oc1ccc(/C(=C(\C)c2ccc(Cl)cc2)c2ccc(OCCN3CCCCC3)cc2)cc1
- GI50 [1]: 1590 nM
- TGI [1]: 3.16 µM
- GI50 [2]: 3.62 µM
- TGI [2]: 15.2 µM
- GI50 [3]: 1940 nM
- TGI [3]: 4.15 µM
- GI50 [4]: 2130 nM
- TGI [4]: 4.03 µM
- GI50 [5]: 1830 nM
- TGI [5]: 3.58 µM
- GI50 [6]: 2200 nM
- TGI [6]: 6.67 µM
- GI50 [7]: 1790 nM
- TGI [7]: 3500 nM
- GI50 [8]: 1920 nM
- TGI [8]: 3.83 µM
- GI50 [9]: 2150 nM
- TGI [9]: 6.32 µM
- GI50 [10]: 1870 nM
- TGI [10]: 3.68 µM
- GI50 [11]: 1340 nM
- TGI [11]: 2.72 µM
- GI50 [12]: 1610 nM
- TGI [12]: 3.19 µM
- GI50 [13]: 2090 nM
- TGI [13]: 4350 nM
- GI50 [14]: 2050 nM
- TGI [14]: 4.23 µM
- GI50 [15]: 1640 nM
- TGI [15]: 4.42 µM
- GI50 [16]: 2.14 µM
- TGI [16]: 4.82 µM
- GI50 [17]: 1190 nM
- TGI [17]: 3240 nM
- GI50 [18]: 2350 nM
- TGI [18]: 5.14 µM
- GI50 [19]: 1210 nM
- TGI [19]: 3.59 µM
- GI50 [20]: 1770 nM
- TGI [20]: 3.97 µM
- GI50 [21]: 1650 nM
- TGI [21]: 3.01 µM
- GI50 [22]: 1690 nM
- TGI [22]: 3.17 µM
- GI50 [23]: 1960 nM
- TGI [23]: 3.91 µM
- TGI [24]: 2.55 µM
- GI50 [25]: 2040 nM
- TGI [25]: 3.89 µM
- GI50 [26]: 1700 nM
- TGI [26]: 3.26 µM
- GI50 [27]: 1730 nM
- TGI [27]: 5.36 µM
- GI50 [28]: 6.39 µM
- TGI [28]: 22.9 µM
- GI50 [29]: 1820 nM
- TGI [29]: 4.43 µM
- GI50 [30]: 1910 nM
- TGI [30]: 3.66 µM
- GI50 [31]: 1710 nM
- TGI [31]: 3.49 µM
- GI50 [32]: 1.97 µM
- TGI [32]: 5.44 µM
- GI50 [33]: 1650 nM
- TGI [33]: 3.25 µM
- GI50 [34]: 1930 nM
- TGI [34]: 5.43 µM
- GI50 [35]: 2720 nM
- TGI [35]: 8.35 µM
- GI50 [36]: 2150 nM
- TGI [36]: 4.88 µM
- GI50 [37]: 1740 nM
- TGI [37]: 3.88 µM
- GI50 [38]: 2100 nM
- TGI [38]: 4.64 µM
- GI50 [39]: 1460 nM
- TGI [39]: 3 µM
- GI50 [40]: 1820 nM
- TGI [40]: 3.86 µM
- GI50 [41]: 1720 nM
- TGI [41]: 3.27 µM
- GI50 [42]: 1840 nM
- TGI [42]: 3.57 µM
- GI50 [43]: 1850 nM
- TGI [43]: 3.56 µM
- GI50 [44]: 2010 nM
- TGI [44]: 3.89 µM
- GI50 [45]: 1690 nM
- TGI [45]: 3.07 µM
- GI50 [46]: 2310 nM
- TGI [46]: 6.09 µM
- GI50 [47]: 1690 nM
- TGI [47]: 3.52 µM
- GI50 [48]: 2260 nM
- TGI [48]: 5.8 µM
- GI50 [49]: 1550 nM
- TGI [49]: 3.77 µM
- GI50 [50]: 739 nM
- TGI [50]: 3.06 µM
- GI50 [51]: 1850 nM
- TGI [51]: 3.93 µM
- GI50 [52]: 1090 nM
- TGI [52]: 4.37 µM
- GI50 [53]: 1660 nM
- TGI [53]: 3.27 µM
- GI50 [54]: 2050 nM
- TGI [54]: 4.11 µM
- GI50 [55]: 1860 nM
- TGI [55]: 3.73 µM
- GI50 [56]: 1590 nM
- TGI [56]: 3.09 µM

Structure (SMILES): CN(C)c1ccc(/C=C/C2=[N+](C)c3ccccc3C2(C)C)cc1
- GI50 [1]: 2060 nM
- TGI [1]: 18.9 µM
- GI50 [2]: 8.86 µM
- TGI [2]: 74.9 µM
- GI50 [3]: 2640 nM
- TGI [3]: 14.9 µM
- GI50 [4]: 1380 nM
- TGI [4]: 12.8 µM
- GI50 [5]: 467 nM
- TGI [5]: 12.6 µM
- GI50 [57]: 4.69 µM
- TGI [57]: > 100 µM
- GI50 [6]: 456 nM
- TGI [6]: > 100 µM
- GI50 [7]: 505 nM
- TGI [7]: 2070 nM
- GI50 [8]: 453 nM
- TGI [8]: 23.9 µM
- GI50 [9]: 508 nM
- TGI [9]: 20 µM
- GI50 [10]: 1350 nM
- TGI [10]: 11.5 µM
- GI50 [11]: 440 nM
- TGI [11]: 20.3 µM
- GI50 [12]: 2660 nM
- TGI [12]: 18.6 µM
- GI50 [13]: 231 nM
- TGI [13]: 801 nM
- GI50 [14]: 862 nM
- TGI [14]: 13.8 µM
- GI50 [15]: 1800 nM
- TGI [15]: 9.03 µM
- GI50 [16]: 4.15 µM
- TGI [16]: > 100 µM
- GI50 [17]: 293 nM
- TGI [17]: 2530 nM
- GI50 [18]: 2190 nM
- TGI [18]: > 100 µM
- GI50 [19]: 512 nM
- TGI [19]: > 100 µM
- GI50 [20]: 328 nM
- TGI [20]: 5.85 µM
- GI50 [21]: 339 nM
- TGI [21]: 10.6 µM
- GI50 [22]: 750 nM
- TGI [22]: 14.4 µM
- GI50 [23]: 662 nM
- TGI [23]: 13.1 µM
- GI50 [24]: 382 nM
- TGI [24]: 8.11 µM
- GI50 [25]: 1510 nM
- TGI [25]: 20.9 µM
- GI50 [26]: 467 nM
- TGI [26]: 11.7 µM
- GI50 [27]: 305 nM
- TGI [27]: 2.24 µM
- GI50 [28]: 1.57 µM
- TGI [28]: 26.1 µM
- GI50 [29]: 286 nM
- TGI [29]: 11.9 µM
- GI50 [30]: 746 nM
- TGI [30]: 10.7 µM
- GI50 [31]: 587 nM
- TGI [31]: 10.1 µM
- GI50 [32]: 13.7 µM
- TGI [32]: > 100 µM
- GI50 [33]: 301 nM
- TGI [33]: 12.3 µM
- GI50 [34]: 1630 nM
- TGI [34]: 31.5 µM
- GI50 [35]: 2220 nM
- TGI [35]: 22.4 µM
- GI50 [36]: 349 nM
- TGI [36]: 12.1 µM
- GI50 [37]: 235 nM
- TGI [37]: 13.8 µM
- GI50 [38]: 247 nM
- TGI [38]: 3.48 µM
- GI50 [39]: 2260 nM
- TGI [39]: 16.8 µM
- GI50 [40]: 500 nM
- TGI [40]: 18.3 µM
- GI50 [41]: 1120 nM
- TGI [41]: 6.64 µM
- GI50 [42]: 1650 nM
- TGI [42]: 14 µM
- GI50 [43]: 1610 nM
- TGI [43]: 16.8 µM
- GI50 [44]: 1030 nM
- TGI [44]: 18 µM
- GI50 [46]: 729 nM
- TGI [46]: 4.19 µM
- GI50 [47]: 354 nM
- TGI [47]: 13.4 µM
- GI50 [48]: 691 nM
- TGI [48]: 18.4 µM
- GI50 [49]: 2470 nM
- TGI [49]: 20.6 µM
- GI50 [50]: 130 nM
- TGI [50]: 13.9 µM
- GI50 [51]: 379 nM
- TGI [51]: 17.8 µM
- GI50 [52]: 401 nM
- TGI [52]: 9.29 µM
- GI50 [58]: 1060 nM
- TGI [58]: 32.5 µM
- GI50 [53]: 353 nM
- TGI [53]: 12.6 µM
- GI50 [54]: 658 nM
- TGI [54]: 6.17 µM
- GI50 [55]: 1360 nM
- TGI [55]: 19.2 µM
- GI50 [56]: 2610 nM
- TGI [56]: 83.3 µM
